From patent US12071424B2, “IRE1 small molecule inhibitors” (Cornell University, priority 2017, dated 2024)

What was measured:
[1] = tested on: IRE1a; test: IRE1a Endoribonuclease Nanoluciferase Assay (XBP1 luciferase reporter in 293T cells); type: cell-based, human; settings: Homo sapiens, HEK-293T, ER stressor, tested as Formic Acid Salt (37: HCl Salt)
How it was run: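 293T cells transiently transfected with a PGK-Luc2-P2A-XBP1u-Nanoluciferase-Pest reporter, replated after 6 h, then treated next day with ER stressors ± inhibitors. After lysis, firefly luminescence then nanoluciferase luminescence read sequentially (1000 ms integration each).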

[2] = in vivo; settings: mouse, po, 30 mg/kg
[3] = molecular target: T1, IRE1a (Homo sapiens, UniProt O75460); test: In vitro FRET assay (IRE1a cleavage of XBP1 RNA probe); type: biochemical; settings: 2 nM SignalChem IRE1a, tested as Formic Acid Salt (37: HCl Salt)
T1 construct: purchased SignalChem
How it was run: Human

[4] = tested on: 293T cells; test: Growth assay (cytotoxicity); type: cell-based, human; settings: Formic Acid Salt (37: HCl Salt)
Experimental: A growth assay was performed to evaluate the compounds disclosed herein for cytotoxicity. Briefly, 5,000,000 293T cells were resuspended in 18 mL of cDMEM for a final concentration of […]. […] In a separate 96 well dilution plate, 199 uL cDMEM and 1 uL of DMSO or any one of the compounds disclosed herein (shown as Test Compound 1, 2, 3, 4, 5, or 6 below) were added to wells A4, A8, C4, C8, E4, E8, G4, and G8, 133.3 uL cDMEM was added to wells 1, 2, 3, 5, 6, and 7 in rows A, C, E and G of the dilution plate. Compounds were serially diluted leftwards in threefold dilutions (66.7 uL into 133.3 uL cDMEM). 20 uL of each dilution was transferred in duplicate (duplicates in vertical paired wells) to the cells plated in the 96-well plate shown in Table 5, to the total concentrations shown below. 200 uL cDMEM was addled to media wells (wells G5-H8). The plate was then placed in a humidified chamber for a […], and then photographed (media was more yellow in wells with potent cell growth). Absorbance was then measured at ˜[…] (lower for more acidic media) and ˜450 nM (higher for more acidic media).

[5] = molecular target: T2, hERG channel (Homo sapiens, UniProt Q12809); test: hERG potassium ion channel automated planar clamp (QPatch) in stable CHO cell line; type: cell-based; settings: Formic Acid Salt (37: HCl Salt), read-out: hERG channel blockade Mean IC50
T2 construct: expressed in transfected cells
Experimental: Blockade of the cardiac ion channel coded by the hERG gene can lead to cardiac arrhythmia. […] To determine the viability of the compounds disclosed herein as pharmacological agents that would not affect the hERG channel blockade, a standard automated planar clamp method was employed to determine the IC50 for various test compounds on their inhibition of the channel. An electrophysiological assay was prepared to measure the electric current passing through the hERG channel expressed in a stable CHO cell line by applying the planar clamp method. This assay was performed using the automated QPatch platform (Sophion, Denmark) which allows fast and accurate electrophysiological characterization of the hERG ion channel and the determination of IC50 values for the test compounds, as shown in Table 9.

[6] = tested on: IRE1a-mediated XBP1 splicing; test: Target engagement in pancreas and salivary gland (RT-qPCR XBP1 splicing); type: in vivo; settings: mouse, 30 mg/kg oral gavage, 6 hours; compared to control and Compound B
Experimental: Mice (n=3 per group) were orally gavaged with 30 mg/kg vehicle control or IRE1 inhibitors dissolved in H2O. After 6 hours, mice were euthanized and pancreas and salivary gland tissues were isolated, snap frozen on dry ice, and used for subsequent RT-qPCR analysis of beta-actin, XBP1s and total XBP1. Gene expression was evaluated by quantitative PCR for XBP1s and total XBP1 transcripts using the 2^(−ΔCT) method for calculating normalized gene expression. Gene expression levels were normalized to Actb transcripts. XBP1 splicing is calculated as XBP1s expression divided by total XBP1 expression.

[7] = tested on: IRE1a/XBP1 pathway; test: Inhibition of endogenous XBP1 splicing in 293T cells with tunicamycin; type: cell-based, human
Experimental: Gene expression was evaluated by quantitative PCR for XBP1s and total XBP1 transcripts using the 2^(−ΔCT) method for calculating normalized gene expression. Gene expression levels were normalized to ACTB transcripts. XBP1 splicing was calculated as actin-normalized XBP1s expression divided by actin-normalized total XBP1 expression.

[8] = tested on: IRE1a; test: IRE1a phosphorylation inhibition assay (immunoblot, 293T cells, tunicamycin); type: cell-based, human
Experimental: Inhibition of ER stress-induced IRE1a phosphorylation and XBP1s protein accumulation in human 293T cells assessed. Immunoblot analysis was performed in human 293T cells lysates obtained from cells after exposure to the chemical ER stress-inducing agent tunicamycin, and optional treatment with Compound C. Lysates were probed with antibodies recognizing IRE1a, phosphorylated IRE1a, XBP1, or TATA-binding protein (TBP). (TBP) was blotted as a protein loading control. […] See FIG. 8, 20 nM was sufficient to reduce XBP1s protein levels below the limit of detection in this assay.

[9] = tested on: IRE1a-dependent XBP1 splicing; test: Inhibition of IRE1a-dependent XBP1 splicing in mice with metastatic ovarian cancer; type: in vivo, mouse; settings: single oral dose 45 mg/kg, 24 hours, FACS-isolated ascites cells
Experimental: Mice (n=3) with established metastatic ovarian cancer were orally gavaged with 45 mg/kg vehicle control or inhibitor dissolved in H2O. The Inhibitor was Compound C. Compound C is 2-chloro-N-(5-(2-(((1r,4r)-4-dimethylamino)cyclohexyl)amino)-8-ethylquinazolin-6-yl)-6-methylpyridin-2-yl)benzenesulfonamide, Compound 91, described herein. After 24 hours, mice were euthanized, ascites-resident cells were extracted and tumor cells, dendritic cells (DCs), and CD4+ T cells were isolated by FACS. The samples were used for subsequent if RT-qPCR analysis of beta-actin, XBP1s and total XBP1. Gene expression was evaluated by quantitative PCR for XBP1s and total XBP1 transcripts using the 2^(−ΔCT) method for calculating normalized gene expression. Gene expression levels were normalized to Actb transcripts. XBP1 splicing is calculated as XBP1s expression divided by total XBP1 expression. A single oral dose of Compound C suppressed IRE1a-dependent XBP1 splicing in tumor cells and relevant immune cells in vivo over 24 hours, FIG. 7.
Mice (n=3) with established metastatic ovarian cancer were orally gavaged with 45 mg/kg vehicle control or inhibitor dissolved in H2O. […] Gene expression was evaluated by quantitative PCR for XBP1s and total XBP1 transcripts using the 2^(−ΔCT) method for calculating normalized gene expression. […] XBP1 splicing is calculated as XBP1s expression divided by total XBP1 expression. […]

[10] = Metabolic assays of N,N-dimethyl compounds; type: in vitro ADME; settings: data not shown
[11] = Bioavailability assay (pharmacokinetic study); settings: mouse; IV 1 mg/kg, PO 30 mg/kg (Compound A PO 10 mg/kg)

T2 sequence (Q12809 whole entry): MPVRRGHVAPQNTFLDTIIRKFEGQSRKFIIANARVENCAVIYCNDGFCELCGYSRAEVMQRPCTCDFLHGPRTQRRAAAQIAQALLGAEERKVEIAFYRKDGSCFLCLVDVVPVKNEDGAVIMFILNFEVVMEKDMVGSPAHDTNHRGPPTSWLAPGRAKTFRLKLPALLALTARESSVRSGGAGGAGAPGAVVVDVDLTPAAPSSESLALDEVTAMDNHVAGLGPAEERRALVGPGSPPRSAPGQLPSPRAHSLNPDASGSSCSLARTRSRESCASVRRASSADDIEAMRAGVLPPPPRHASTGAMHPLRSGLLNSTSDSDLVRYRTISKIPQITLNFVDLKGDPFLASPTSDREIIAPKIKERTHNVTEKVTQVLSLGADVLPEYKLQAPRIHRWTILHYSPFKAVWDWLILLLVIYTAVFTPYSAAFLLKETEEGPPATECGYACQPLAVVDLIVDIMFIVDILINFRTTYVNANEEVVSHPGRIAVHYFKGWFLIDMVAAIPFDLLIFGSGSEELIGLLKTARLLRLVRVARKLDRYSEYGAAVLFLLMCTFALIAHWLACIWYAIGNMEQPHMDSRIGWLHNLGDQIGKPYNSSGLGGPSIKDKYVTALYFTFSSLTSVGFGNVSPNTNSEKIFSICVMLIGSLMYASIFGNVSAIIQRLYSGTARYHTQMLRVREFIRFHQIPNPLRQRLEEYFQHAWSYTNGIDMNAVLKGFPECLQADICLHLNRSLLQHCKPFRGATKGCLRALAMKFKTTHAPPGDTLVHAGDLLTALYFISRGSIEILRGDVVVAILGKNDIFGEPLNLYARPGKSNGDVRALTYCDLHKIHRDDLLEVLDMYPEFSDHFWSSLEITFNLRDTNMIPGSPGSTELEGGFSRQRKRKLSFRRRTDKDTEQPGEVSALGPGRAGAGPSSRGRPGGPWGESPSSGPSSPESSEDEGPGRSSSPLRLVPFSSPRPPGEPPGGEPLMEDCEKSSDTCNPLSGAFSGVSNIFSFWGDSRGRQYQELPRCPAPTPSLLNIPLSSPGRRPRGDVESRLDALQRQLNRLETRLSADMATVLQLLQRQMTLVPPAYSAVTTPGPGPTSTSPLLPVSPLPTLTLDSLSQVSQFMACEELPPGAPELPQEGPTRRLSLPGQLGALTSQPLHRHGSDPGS
T1 sequence (O75460 19-977): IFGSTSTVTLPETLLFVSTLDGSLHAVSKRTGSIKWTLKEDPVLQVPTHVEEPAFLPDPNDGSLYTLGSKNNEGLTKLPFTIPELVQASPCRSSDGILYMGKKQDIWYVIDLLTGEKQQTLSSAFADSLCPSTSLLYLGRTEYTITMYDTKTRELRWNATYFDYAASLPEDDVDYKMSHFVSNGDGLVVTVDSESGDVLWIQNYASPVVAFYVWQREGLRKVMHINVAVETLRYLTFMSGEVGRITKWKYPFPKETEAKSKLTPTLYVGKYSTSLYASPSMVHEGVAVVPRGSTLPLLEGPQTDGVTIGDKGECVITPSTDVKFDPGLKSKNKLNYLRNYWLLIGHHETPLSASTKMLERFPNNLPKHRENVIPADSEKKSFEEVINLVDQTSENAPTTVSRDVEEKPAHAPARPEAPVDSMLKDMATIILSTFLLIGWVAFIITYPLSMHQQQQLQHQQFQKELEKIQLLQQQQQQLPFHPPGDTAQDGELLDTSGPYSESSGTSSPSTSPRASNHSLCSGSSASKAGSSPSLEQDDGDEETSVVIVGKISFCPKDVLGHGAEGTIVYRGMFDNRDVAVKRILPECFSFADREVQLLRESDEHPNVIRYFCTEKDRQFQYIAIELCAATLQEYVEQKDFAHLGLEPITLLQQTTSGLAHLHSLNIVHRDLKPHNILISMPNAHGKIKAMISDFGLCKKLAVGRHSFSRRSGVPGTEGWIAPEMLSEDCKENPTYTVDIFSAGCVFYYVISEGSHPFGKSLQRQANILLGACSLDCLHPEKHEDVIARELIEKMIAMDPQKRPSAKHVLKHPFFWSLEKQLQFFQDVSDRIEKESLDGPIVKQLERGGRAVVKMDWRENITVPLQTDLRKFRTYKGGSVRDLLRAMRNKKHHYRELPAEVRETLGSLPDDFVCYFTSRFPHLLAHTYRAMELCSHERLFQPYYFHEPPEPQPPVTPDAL

Compound `CCc1cc(-c2ccc(NS(=O)(=O)c3ccccc3Cl)nc2C)cc2cnc(N[C@H]3CC[C@H](N(C)C)CC3)nc12` [Compound 91, 2-chloro-N-(5-(2-(((1r,4r)-4-(dimethylamino)cyclohexyl)amino)-8-ethylquinazolin-6-yl)-6-methylpyridin-2-yl)benzenesulfonamide] has an EC50 [1] of at most 5 nM and a bioavailability [2] of 66%.

With `CCc1cc(-c2ccc(NS(=O)(=O)c3ccccc3Cl)nc2OC)cc2cnc(N[C@H]3CC[C@H](N)CC3)nc12` [Compound 37, N-(5-(2-(((1r,4r)-4-aminocyclohexyl)amino)-8-ethylquinazolin-6-yl)-6-methoxypyridin-2-yl)-2-chlorobenzene-sulfonamide] the IC50 [3] was at most 5 nM, the EC50 [1] was at most 5 nM and the “% Growth at 0.5556 uM” value ([4]; 0.5556 uM) was “D (D: >75% to ≤100%)”. The “% Growth at 1.667 uM” value ([4]; 1.667 uM) was “C (C: >50% to ≤75%)”, the “% Growth at 5 uM” value ([4]; 5 uM) was “B (B: >25% to ≤50%)” and the IC50 [5] was 10000 to 50000 nM. The bioavailability [2] was 17%.

In the case of `CCc1cc(-c2ccc(NS(=O)(=O)c3ccccc3Cl)nc2C)cc2cnc(N[C@H]3CC[C@H](N(C)C)CC3)nc12` [Compound C], the “IRE1a-mediated XBP1 splicing in pancreas and salivary gland” value [6] is reported as “potently suppressed”, the “shift in potency between Compound A and Compound C” value [7] is reported as “approximately 3.6 ×” and the “concentration sufficient to reduce XBP1s protein levels below the limit of detection” value [8] is reported as 20 nM. The IRE1a phosphorylation ([8]; pre-incubation with compound) was “strongly repressed”, the “accumulation of XBP1s protein” value ([8]; pre-incubation with compound) was “completely abrogated” and the “IRE1a-dependent XBP1 splicing in tumor cells and immune cells in vivo” value [9] was “suppressed”. The metabolism [10] was “removal of the methyl groups”.

`CCc1cc(-c2ccc(NS(=O)(=O)c3ccccc3Cl)nc2C)cc2cnc(N[C@H]3CC[C@H](N)CC3)nc12` [Compound A, N-(5-(2-(((1r,4r)-4-aminocyclohexyl)amino)-8-ethylquinazolin-6-yl)-6-methylpyridin-2-yl)-2-chlorobenzenesulfonamide] showed an oral bioavailability [11] of 4%.

In the case of `CCc1cc(-c2ccc(NS(=O)(=O)c3ccccc3Cl)nc2OC)cc2cnc(N[C@H]3CC[C@H](N(C)C)CC3)nc12` [Compound D], the “IRE1a-mediated XBP1 splicing in pancreas and salivary gland” value [6] is reported as “potently suppressed”, the “IRE1a-dependent XBP1 splicing in tumor cells and immune cells in vivo” value [9] is reported as “suppressed” and the metabolism [10] is reported as “removal of the methyl groups”.
